For the test, the target named is T1, V600E full-length B-Raf (Homo sapiens, UniProt P15056, V600E).
T1 construct: 1 μM FSBA-MEK and 20 nM V600E full-length B-Raf; made in house; host or cells: sf9 insect cells (baculovirus)
The test is described as follows: B-Raf IC50 Assay (B-RAF V600E inhibition assay, Example A). It counts as biochemical. From the text:
Determining the activity of Raf in the sample is possible by a number of direct and indirect detection methods (US 2004/0082014). Activity of human recombinant B-Raf protein may be assessed in vitro by assay of the incorporation of radio labeled phosphate to recombinant MAP kinase (MEK), a known physiologic substrate of B-Raf, according to US 2004/0127496 and WO 03/022840. The activity/inhibition of V600E full-length B-Raf was estimated by measuring the incorporation of radio labeled phosphate from [γ-33P]ATP into FSBA-modified wild-type MEK (see Example A).
Activity of human recombinant B-Raf protein may be assessed in vitro by assay of the incorporation of radio labeled phosphate to recombinant MAP kinase (MEK), a known physiologic substrate of B-Raf, according to U.S. Patent Appl. Publication No. 2004/0127496 and WO 03/022840. Catalytically active human recombinant B-Raf protein is obtained by purification from sf9 insect cells infected with a human B-Raf recombinant baculovirus expression vector.
The activity/inhibition of V600E full-length B-Raf was estimated by measuring the incorporation of radio labeled phosphate from [γ-33P]ATP into FSBA-modified wild-type MEK. The […] assay mixtures contained 25 mM Na Pipes, pH 7.2, 100 mM KCl, 10 mM MgCl2, 5 mM β-glycerophosphate, 100 μM Na Vanadate, 4 μM ATP, 500 nCi [γ-33P]ATP, 1 μM FSBA-MEK and 20 nM V600E full-length B-Raf. Incubations were carried out at 22° C. in a Costar 3365 plate (Corning). Prior to the assay, the B-Raf and FSBA-MEK were preincubated together in assay buffer at 1.5× (20 μL of 30 nM and 1.5 μM, respectively) for 15 minutes, and the assay was initiated by the addition of 10 μL of […]. Following the 60-minute incubation, the assay mixtures were quenched by the addition of 100 μL of 25% TCA, the plate was mixed on a rotary shaker for 1 minute, and the product was captured on a Perkin-Elmer GF/B filter plate using a Tomtec Mach III Harvester. After sealing the bottom of the plate, 35 μL of Bio-Safe II (Research Products International) scintillation cocktail were added to each well and the plate was top-sealed and counted in a Topcount NXT (Packard).

[1] abbreviates: B-Raf V600E assay of Example A: less than 100 nM, read-out: IC50.
Where [2] appears, read: B-Raf V600E assay of Example A: less than about 1 μM, read-out: IC50.
[3] abbreviates: incorporation of radio labeled phosphate from [γ-33P]ATP into FSBA-modified wild-type MEK, 4 μM ATP, 20 nM V600E full-length B-Raf, 60-minute incubation, 22° C., read-out: BRAF V600E IC50.

Structures are written as SMILES. Where two headings read alike, the source gives them in different places.

T1 sequence (P15056 whole entry V600E): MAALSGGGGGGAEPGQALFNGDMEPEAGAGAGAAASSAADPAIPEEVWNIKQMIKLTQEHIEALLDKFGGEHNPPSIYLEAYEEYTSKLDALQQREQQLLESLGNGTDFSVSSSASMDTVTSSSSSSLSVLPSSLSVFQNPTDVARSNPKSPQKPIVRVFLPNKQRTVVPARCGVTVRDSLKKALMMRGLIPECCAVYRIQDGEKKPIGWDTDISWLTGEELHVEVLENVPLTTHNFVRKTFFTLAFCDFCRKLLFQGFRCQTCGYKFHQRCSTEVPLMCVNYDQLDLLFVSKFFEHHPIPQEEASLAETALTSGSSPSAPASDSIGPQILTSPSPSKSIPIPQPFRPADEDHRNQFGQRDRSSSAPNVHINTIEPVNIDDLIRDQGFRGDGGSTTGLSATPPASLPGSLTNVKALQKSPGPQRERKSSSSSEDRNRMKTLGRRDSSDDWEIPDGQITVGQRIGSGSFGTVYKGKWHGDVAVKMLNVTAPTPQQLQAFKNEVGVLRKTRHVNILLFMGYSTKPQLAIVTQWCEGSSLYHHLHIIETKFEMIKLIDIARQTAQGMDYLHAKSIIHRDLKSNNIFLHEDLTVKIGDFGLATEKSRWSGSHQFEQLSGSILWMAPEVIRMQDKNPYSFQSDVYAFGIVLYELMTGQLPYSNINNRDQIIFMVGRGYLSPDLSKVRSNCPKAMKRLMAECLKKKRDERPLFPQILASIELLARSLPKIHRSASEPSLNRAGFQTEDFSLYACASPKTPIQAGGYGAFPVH

As to `CCCS(=O)(=O)Nc1ccc(F)c(NC(=O)c2cn(C)c3c(N)ncnc23)c1F` [Example 1, 4-amino-5-methyl-pyrrolo[3,2-d]pyrimidine-7-carboxylic acid[2,6-difluoro-3-(propane-1-sulfonylamino)-phenyl]-amide], the IC50 is, setting by setting: under setting [1], below 100 nM; under setting [2], below 1000 nM; under setting [3], 18.4 nM.
Regarding `CCCS(=O)(=O)Nc1ccc(F)c(NC(=O)c2c[nH]c3c(NOC)ncnc23)c1F` [Example 105, 4-Methoxyamino-5H-pyrrolo[2-d]pyrimidine-7-carboxylic acid [2,6-difluoro-3-(propane-1-sulfonylamino)-phenyl]-amide], the IC50 runs as follows: under setting [2], below 1000 nM; under setting [3], 112 nM.
As for `CCCS(=O)(=O)Nc1ccc(F)c(NC(=O)c2scc3c(N)ncnc23)c1F` [Example 100, 4-Amino-N-(2,6-difluoro-3-(propylsulfonamido)phenyl)thieno[3,4-d]pyrimidine-7-carboxamide], the IC50 is, setting by setting: under setting [1], below 100 nM; under setting [2], below 1000 nM; under setting [3], 29.8 nM.
The corresponding values for `O=C(Nc1c(F)c(F)cc(NS(=O)(=O)CCCF)c1F)c1csc2c(NC3CC3)ncnc12` [Example 97, 4-Cyclopropyl-amino-thieno [3,2-d] pyrimidine-7-carboxylic acid [2,3,6-trifluoro-5-(3-fluoro-propane-1-sulfonyl-amino)-phenyl]-amide] are below 100 nM, below 1000 nM and 0.71 nM.
In the case of `CCCS(=O)(=O)Nc1ccc(Cl)c(NC(=O)c2csc3c(NC4CC4)ncnc23)c1Cl` [Example 66, 4-Cyclopropylamino-thieno[3,2-d]pyrimidine-7-carboxylic acid [2,6-dichloro-3-(propane-1-sulfonylamino)-phenyl]-amide], the IC50 is below 100 nM under setting [1], below 1000 nM under setting [2] and 0.2 nM under setting [3].
The matching figures for `O=C(Nc1c(Cl)ccc(NS(=O)(=O)CCCF)c1F)c1nsc2cncnc12` [Example 112, Isothiazolo[4,5-d] pyrimidine-3-carboxylic acid [6-chloro-2-fluoro-3-(3-fluoro-propane-1-sulfonylamino)-phenyl]-amide]: below 100 nM, below 1000 nM and 7.29 nM.
The corresponding values for `CCCS(=O)(=O)Nc1cc(F)cc(NC(=O)c2csc3c(N)ncnc23)c1Cl` [Example 17, 4-Amino-thieno[3,2-d] pyrimidine-7-carboxylic acid [2-chloro-5-fluoro-3-(propane-1-sulfonyl-amino)-phenyl]-amide] are below 100 nM, below 1000 nM and 1.4 nM.
In the case of `CCCS(=O)(=O)Nc1cc(F)c(F)c(NC(=O)c2csc3c(NC4CC4)ncnc23)c1F` [Example 86, 4-Cyclopropyl-amino-thieno [3,2-d] pyrimidine-7-carboxylic acid [2,3,6-trifluoro-5-(propane-1-sulfonyl-amino)-phenyl]-amide], the IC50 by setting is: under setting [1], below 100 nM; under setting [2], below 1000 nM; under setting [3], 1.2 nM.
The matching figures for `CCCS(=O)(=O)Nc1ccc(F)c(NC(=O)c2ccc3c(N)ncnn23)c1F` [Example 101, 4-Amino-pyrrolo[2,1-f][1,2,4]triazine-7-carboxylic acid [2,6-difluoro-3-(propane-1-sulfonylamino)-phenyl]-amide]: below 100 nM, below 1000 nM and 2.5 nM.
With `CCCS(=O)(=O)Nc1ccc(F)c(NC(=O)c2c[nH]c3c(N)ncnc23)c1F` [Example 102, 4-Amino-5H-pyrrolo[3,2-d]pyrimidine-7-carboxylic acid [2,6-difluoro-3-(propane-1-sulfonylamino)-phenyl]-amide], the IC50 by setting is: under setting [1], below 100 nM; under setting [2], below 1000 nM; under setting [3], 20.6 nM.
The corresponding values for `CCCNc1ncnc2c(C(=O)Nc3c(F)ccc(NS(=O)(=O)CCC)c3Cl)csc12` [Example 45, 4-Propylamino-thieno[3,2-d]pyrimidine-7-carboxylic acid [2-chloro-6-fluoro-3-(propane-1-sulfonylamino)-phenyl]-amide] are below 100 nM, below 1000 nM and 4.1 nM.
For the compound `Nc1ncnc2c(C(=O)Nc3c(F)c(F)cc(NS(=O)(=O)CCCF)c3F)csc12` [Example 10, 4-Amino-thieno[3,2-d]pyrimidine-7-carboxylic acid[2,3,6-trifluoro-5-(3-fluoro-propane-1-sulfonylamino)-phenyl]-amide], the IC50 runs as follows: under setting [1], below 100 nM; under setting [2], below 1000 nM; under setting [3], 0.72 nM.
The matching figures for `CCCS(=O)(=O)Nc1ccc(F)c(NC(=O)c2csc3c(N)ncnc23)c1Cl` [Example 5, 4-Amino-thieno[3,2-d] pyrimidine-7-carboxylic acid [2-chloro-6-fluoro-3-(propane-1-sulfonyl-amino)-phenyl]-amide]: below 100 nM, below 1000 nM and 0.86 nM.
The matching figures for `CC(C)CS(=O)(=O)Nc1ccc(F)c(NC(=O)c2csc3c(N)ncnc23)c1F` [Example 19, 4-Amino-thieno[3,2-d] pyrimidine-7-carboxylic acid [2,6-difluoro-3-(2-methyl-propane-1-sulfonylamino)-phenyl]-amide]: below 100 nM, below 1000 nM and 2.6 nM.
The matching figures for `CCCS(=O)(=O)Nc1ccc(F)c(NC(=O)c2csc3c(NCC(F)F)ncnc23)c1F` [Example 53, 4-(2,2-Difluoro-ethylamino)-thieno[3,2-d] pyrimidine-7-carboxylic acid [2,6-difluoro-3-(propane-1-sulfonylamino)-phenyl]-amide]: below 100 nM, below 1000 nM and 26.5 nM.
Consider `CCCS(=O)(=O)Nc1ccc(Cl)c(NC(=O)c2csc3c(N)ncnc23)c1Cl` [Example 9, 4-Amino-thieno[3,2-d]pyrimidine-7-carboxylic acid[2,6-dichloro-3-(propane-1-sulfonylamino)-phenyl]-amide], for which the IC50 is below 100 nM under setting [1], below 1000 nM under setting [2] and 0.1 nM under setting [3].
As to `CCCS(=O)(=O)Nc1cccc(NC(=O)c2csc3c(N)ncnc23)c1F` [Example 26, 4-Amino-thieno[3,2-d]pyrimidine-7-carboxylic acid[2-fluoro-3-(propane-1-sulfonylamino)-phenyl]-amide], the half-inhibitory concentration (IC50) is, setting by setting: under setting [1], below 100 nM; under setting [2], below 1000 nM; under setting [3], 20 nM.
The matching figures for `CCCS(=O)(=O)Nc1ccc(Cl)c(NC(=O)c2csc3c(NN4CCOCC4)ncnc23)c1Cl` [Example 67, 4-(Morpholin-4-ylamino)-thieno[3,2-d] pyrimidine-7-carboxylic acid [2,6-dichloro-3-(propane-1-sulfonyl-amino)-phenyl]-amide]: below 100 nM, below 1000 nM and 0.2 nM.
The corresponding values for `Nc1ncnc2c(C(=O)Nc3c(F)ccc(NS(=O)(=O)CCCF)c3F)csc12` [Example 14, 4-Amino-thieno[3,2-d] pyrimidine-7-carboxylic acid [2,6-difluoro-3-(3-fluoro-propane-1-sulfonylamino)-phenyl]-amide] are below 100 nM, below 1000 nM and 0.6 nM.
The matching figures for `CCNc1ncnc2c(C(=O)Nc3c(F)c(F)cc(NS(=O)(=O)CCCF)c3F)csc12` [Example 98, 4-Ethylamino-thieno[3,2-d] pyrimidine-7-carboxylic acid [2,3,6-trifluoro-5-(3-fluoro-propane-1-sulfonyl-amino)-phenyl]-amide]: below 100 nM, below 1000 nM and 2.16 nM.
As for `CCCS(=O)(=O)Nc1ccc(F)c(NC(=O)c2csc3c(C)ncnc23)c1Cl` [Example 38, 4-Methyl-thieno[3,2-d]pyrimidine-7-carboxylic acid [2-chloro-6-fluoro-3-(propane-1-sulfonylamino)-phenyl]-amide], the IC50 is, setting by setting: under setting [1], below 100 nM; under setting [2], below 1000 nM; under setting [3], 46.5 nM.
